Measurements published in PMC6380468, “Investigations on small molecule inhibitors targeting the histone H3K4 tri-methyllysine binding PHD-finger of JmjC histone demethylases” (Bioorganic & Medicinal Chemistry, 2018).

Legend:
KDM5A_c1 (M1-L801) = target: T1, KDM5A_c1 (M1-L801) (Homo sapiens, UniProt P29375); assay: MALDI-TOF MS H3K4me3 demethylation assay, KDM5A_c1; format: biochemical; details: average ± StdDev of n = 2, read-out: IC50, inhibition of H3K4me3 demethylation activity, KDM5A_c1
T1 construct: made in house
T1 sequence (P29375 1-801): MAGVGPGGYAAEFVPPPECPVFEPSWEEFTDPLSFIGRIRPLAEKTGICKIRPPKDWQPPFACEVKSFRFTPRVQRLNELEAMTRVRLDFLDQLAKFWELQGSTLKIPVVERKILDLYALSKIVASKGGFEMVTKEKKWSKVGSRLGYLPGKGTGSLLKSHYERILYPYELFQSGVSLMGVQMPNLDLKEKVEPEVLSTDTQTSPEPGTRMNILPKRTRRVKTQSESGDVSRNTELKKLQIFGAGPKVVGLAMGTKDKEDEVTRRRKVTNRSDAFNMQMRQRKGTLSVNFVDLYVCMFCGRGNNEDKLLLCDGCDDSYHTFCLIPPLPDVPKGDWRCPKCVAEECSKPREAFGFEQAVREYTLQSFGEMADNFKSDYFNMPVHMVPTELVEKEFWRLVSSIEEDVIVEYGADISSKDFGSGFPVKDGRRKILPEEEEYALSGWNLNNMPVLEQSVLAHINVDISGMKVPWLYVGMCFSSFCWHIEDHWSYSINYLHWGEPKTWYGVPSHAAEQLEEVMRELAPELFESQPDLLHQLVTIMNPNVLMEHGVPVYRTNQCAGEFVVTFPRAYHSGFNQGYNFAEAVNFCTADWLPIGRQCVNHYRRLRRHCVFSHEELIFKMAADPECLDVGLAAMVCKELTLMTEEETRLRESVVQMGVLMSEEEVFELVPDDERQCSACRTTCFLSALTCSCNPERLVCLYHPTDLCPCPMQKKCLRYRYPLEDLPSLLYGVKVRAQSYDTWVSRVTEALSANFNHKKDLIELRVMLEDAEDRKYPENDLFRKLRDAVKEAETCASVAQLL
Description: Two catalytically active constructs of KDM5A were employed, KDM5A_c1 (M1-L801) and KDM5A_c2 (ΔARID/PHD1, P13-S744 with L88-G353 (ARID/PHD1) replaced with a GGGG linker) and both KDM5A_c1 and KDM5A_c2 constructs lack the PHD2 and PHD3. […] A MALDI-TOF MS assay was used to measure the activity of H3K4me3 demethylation in the presence of inhibitors (Table 2, Fig. 3C and D).
The KDM5A mixture (5 µL, KDM5A-c1: 1.0 µM or KDM5A-c2: 0.5 µM) was pre-incubated with 100 nL inhibitors (in DMSO) for 10 min. […] The mixture was quenched using formic acid (5 µL, 1 v/v% in MQ) after 4 minutes (KDM5A-c1) or 3 minutes (KDM5A-c2). The stopped reaction (1 µL) was mixed with […] (CHCA) MALDI matrix (saturated solution in TFA (0.1%) in MilliQ water and trifluoroacetic acid (0.1%) acetonitrile (1:1)) at 1:1 ratio (2 µL), air dried and analysed using Bruker microflex MALDI-TOF controlled with FlexControl. The data were further processed using FlexAnalysis and excel.

His-KDM5A(PHD3) = target: T2, His-KDM5A(PHD3) (Homo sapiens, UniProt P29375); assay: AlphaScreen displacement assay, H3K4me3-Bn from His-KDM5A(PHD3); format: binding; details: AlphaScreen; 25 nM protein and 25 nM peptide; average ± StdDev, n ≥ 3; NM = not measurable within the solubility range; read-out: IC50 for displacement of H3K4me3-Bn from His-KDM5A(PHD3)
T2 construct: KDM5A(PHD3) (1542 – 1660), encoded by a pGTLV2 vector; made in house; host or cells: E. coli Rosetta 2(DE3)pLysS
T2 sequence (P29375 1542-1660): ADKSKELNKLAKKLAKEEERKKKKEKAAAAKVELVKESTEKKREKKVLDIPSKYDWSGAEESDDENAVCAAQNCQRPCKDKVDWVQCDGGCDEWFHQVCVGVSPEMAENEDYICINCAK
Description: AlphaScreen is a homogenous bead-based assay used to study protein-protein interactions.[28] […] AlphaScreen beads were then added and incubated for 1 h. Changes in the AlphaScreen signals with increasing inhibitor concentrations were then measured to quantify the level of KDM5A(PHD3) and H3K4me3 binding, and IC50 values were determined.
His-tagged PHD finger constructs and H3K4me3-Bn peptides were diluted into AlphaScreen assay buffer (50mM HEPES, 150mM NaCl, 0.1% BSA, 0.01% Tween20, pH 7.5). An 8-point 1:2 dilution series was made for both protein and peptide. With a multichannel pipette (LTS P10), 5 µL protein was dispensed into 8 columns of a 384-well plate, followed by 5 µL of 4% DMSO in AlphaScreen assay buffer. The mixture was incubated at room temperature for 15 minutes, followed by dispensing 5 µL peptide across 8 rows of the 384-well plate, forming a cross-gradient of protein and peptide. The contents were incubated for 30 minutes at room temperature, followed by the addition of 5 µL of a mixture of AlphaScreen Streptavidin donor beads and Nickel Chelate acceptor beads in AlphaScreen assay buffer (20 µg/mL final). The samples were incubated for 60-120 minutes at room temperature in the dark, followed by measurement of luminescence on a BMG Labtech Pherastar plate reader (Software Ver. 5.30 R3, Firmware Ver. 1.21). The data was plotted in Prism Ver 7.01 (GraphPad Software, Inc.) and fitted to a linear model in order to determine the optimal concentration of protein and peptide within the linear signal range for each reader domain.
For peptide displacement assays, 5 µL of the inhibitor dilution series (at a concentration of 4% DMSO in AlphaScreen assay buffer) was pre-incubated with 5 µL of the protein at RT for 15 minutes. Peptide solution (5 µL) was added and incubated for 30 minutes at RT, followed by the addition of 5 µL of a mixture of AlphaScreen Streptavidin donor beads and Nickel Chelate acceptor beads in AlphaScreen assay buffer (20 µg/mL final). The contents were incubated for 60-120 minutes at RT in the dark, followed by measurement of luminescence on a BMG Labtech Pherastar plate reader (Software Ver. 5.30 R3, Firmware Ver. 1.21). The data was plotted in Prism Ver 7.01 (GraphPad Software, Inc.) and fitted to a Log(inhibitor) v/s response – variable slope model in order to obtain IC50 values.

[1] = AlphaScreen biotin-His6 counterscreen; details: AlphaScreen interference counterscreen with biotin-His6; unit inferred; DNC = data did not converge to binding model; NM = not measurable within the solubility range

Row | IC50 (KDM5A_c1 (M1-L801)) [µM] | IC50 (His-KDM5A(PHD3)) [µM] | SMILES | IC50 [1] [µM]
1 | > 1000 | 166 ± 20 | CCCCc1oc2ccccc2c1C(=O)c1ccc(OCCCN(C)C)cc1 [Compound 1a, (2-Butylbenzofuran-3-yl)(4-(3-(dimethylamino)propoxy)phenyl)methanone] | 484 ± 82
2 | 80 ± 29 | 340 ± 44 | CCCCc1oc2ccccc2c1C(=O)c1ccc(OCCC[N+](C)(C)C)cc1.[I-] [Compound 2a, 3-(4-(2-Butylbenzofuran-3-carbonyl)phenoxy)-N,N,N-trimethylpropan-1-aminium iodide] | 4300 ± 163
